Laboratory results taken from patent US9877937B2, “Compounds and methods for treating aberrant adrenocortical cell disorders” (Millendo Therapeutics, Inc., priority 2012, dated 2018).
Entries after “also recorded” stand apart in the source; their conditions may differ. Counter-ions that a name gives are not always drawn. Like-named read-outs stand apart in the source and are kept apart here.

Legend:
[1] = tested on: adrenocortical carcinoma (ACC); details: cited from earlier work
H295R cells [2] = experiment: ATP levels of H295R cells (CellTiter-Glo luminescence); format: cell-based, human
Protocol: (§1) To measure ATP levels and reducing potentials of H295R cells, these cells were cultured in 96-well flat bottom cell culture plates (BD Biosciences) plated at 50,000 cells in 100 μl. The cells were plated in DMEM media without glucose (GIBCO 11966)+10 mM galactose+5 mM sodium-HEPES+2 mM glutamine (addition)+1 mM sodium pyruvate+100 U/ml penicillin/streptomycin+either 0% or 5% fetal calf serum. After overnight (16-20 h) incubation, 20 μl of medium containing 5% fetal calf serum as well as the aliquots of ATR-101 required to produce the final concentrations were added to the cells. To measure ATP levels, 100 μl of the CellTiter-Glo® (Promega Corp., Madison, Wis.) reagent was added to lyse the cells at the indicated times, and luciferin luminescence was measured to determine the amount of ATP in the lysate. To measure reducing activity, PrestoBlue® Cell Viability reagent (Life Technologies Corp.) was added to the cells immediately after ATR-101. The cells were incubated at 37° C. with CO2, and resorufin fluorescence was measured at the times indicated.
To investigate the mechanism whereby ATR-101 kills cells in culture, the effects of cholesterol depletion on the ATP levels of H295R cells cultured in the presence of ATR-101 was investigated. The cells were cultured in the presence of methyl-β-cyclodextrin (MβCD), which can sequester cholesterol and thereby deplete free cholesterol in the cells. […] MβCD increased the concentration of ATR-101 required for half-maximal depletion of ATP levels more than 4-fold.
To determine if the effect of MβCD on ATR-101 cytotoxicity was due to cholesterol depletion, H295R cells were cultured in the presence of the equivalent amount of MβCD complexed with cholesterol (FIG. 12C). […] The protection of H295R cells from the cytotoxicity of ATR-101 by culture in the presence of MβCD was therefore due to cholesterol depletion in these cells.

[3] = tested on: xenografts of the human ACC-derived cell line H295R; experiment: H295R xenografts in SCID mice, treatment of established tumors (Examples 1 and 2); format: in vivo
Protocol: To investigate the potential therapeutic effect of ATR-101 in a mouse model of adrenocortical carcinoma (ACC), xenografts of the human ACC-derived cell line H295R in SCID mice (6-7 week males) were established. After the xenografts had grown to measurable size, the mice were randomized in two groups. The treatment group was administered 300 mg/kg/day ATR-101 by oral gavage. The control group was administered the vehicle without ATR-101. The tumor size was measured using calipers before and on the indicated days after starting administration of ATR-101.
To determine if the effects of ATR-101 on ACC-derived cell line xenotransplants were reproducible, the experiment using xenotransplants of the same H295R cell line in SCID mice (10-11 week males) were repeated.

[4] = biological target: complex II of the electron transport chain (Homo sapiens, UniProt O14521+P21912+P31040+Q99643); details: isolated mitochondria; cited from earlier work
[5] = Tissue distribution of ATR-101 in dogs; format: in vivo
Protocol: (§2) Tissue distribution of ATR-101 in 3 rats and 3 dogs was examined. ATR-101 concentrations were measured in plasma, red blood cells, adrenal gland, liver, kidney, skeletal muscle, ovary, subcutaneous fat, and cerebral spinal fluid. […] ATR-101 concentrations in rats were higher in adrenal gland (˜2×) and ovary (˜1.4×) than in plasma. […] ATR-101 concentrations in dogs were similar in adrenal gland and plasma.

adrenal gland [6] = experiment: Adrenal gland histopathology in dogs; format: in vivo; details: 300 mg/kg/day for 28 days; day 28; hydrochloride
Protocol: Left and right adrenal glands from dogs treated with a high dose 300 mg/kg/day of ATR-101 for 28 days and control animals were collected at necropsy and fixed in 10% neutral buffered formalin, processed by routine paraffin technique, sectioned longitudinally, and stained with hematoxylin and eosin for routine light microscopy (FIGS. 15A-E).

[7] = Tissue distribution of ATR-101 in rats; format: in vivo; details: for Kp at 7 days: rat, female rats, 100 mg/kg/day for 7 days, N=3
Protocol: as §2

H295R cells [8] = experiment: Reducing activity of H295R cells (resazurin reduction, PrestoBlue); format: cell-based, human
Protocol: as §1
Cellular reducing activity was determined by measuring resazurin reduction using the PrestoBlue® Cell Viability Reagent (Invitrogen). […] Low to moderate concentrations of ATR-101 increased reducing activity, but had little effect on ATP levels. High concentrations of ATR-101 reduced both reducing activity and ATP levels, presumably because of a decrease in cell viability.
To determine if the culture of H295R cells in the presence of MβCD altered ATR-101 entry into cells, the effects of MβCD on ATR-101 induced changes in reducing activity were examined (FIG. 12D-F). Culture in the presence of MβCD alone had little effect on the reducing activity of the cells (FIG. 12E). […] The reduction in reducing activity was likely related to the reduction in ATP levels caused by MβCD complexed with cholesterol.

ACTH-stimulated cortisol = experiment: Basal and ACTH-stimulated plasma cortisol levels in dogs; format: in vivo
Protocol: […] 6 dogs/sex/dosage group were studied. […] Plasma cortisol concentrations (ng/ml) in male and female dogs were determined prior to ACTH stimulation and 0.5 and 1 hour after ACTH stimulation.

[9] = tested on: ACC-derived cell line H295R xenografts; experiment: ACC xenograft establishment in SCID mice injected with H295R cells (Example 6); format: in vivo
Protocol: FIG. 7 depicts the effects of ATR-101 administration on ACC xenograft establishment. Randomized cohorts of 10 mice injected with H295R cells were administered 700 mg/kg/day ATR-101 for 4 days followed by 300 mg/kg/day ATR-101 or vehicle by gavage beginning 14 days after cell injection. The sizes of the xenografts were measured three times each week.
(§3) To investigate the potential therapeutic benefit of ATR-101 in the establishment of ACC xenografts in a mouse model of ACC, ACC-derived cell line H295R was injected in SCID mice (6-7 week males). 1×10^8 cells in 0.2 ml DMEM were injected under the skin in the right dorsal flank regions of SCID mice. Two weeks after injection, the mice were randomized in groups of 10. ATR-101 was administered at 700 mg/kg/day for 4 days, followed by 300 mg/kg/day by oral gavage in 10% DMSO, 0.5% CMC, 0.9% NaCl, 0.2% Tween, pH 3. Control mice were administered vehicle. The tumor size was measured using calipers three times a week. Urinary cortisol was measured at various time points after start of ATR-101 or vehicle administration.

adrenal gland [10] = experiment: Adrenal gland weights in dogs after 28 days; format: in vivo
Protocol: Left and right adrenal glands from male and female dogs treated with various doses of ATR-101 (0 mg/kg/day, 0.3 mg/kg/day, 3 mg/kg/day, or 30 mg/kg/day) for 28 days were collected at necropsy and weighed. Dose-related changes in adrenal gland weights occurred in both sexes (FIGS. 16A and 17A). Absolute and relative (adrenal-to-body (Adrenal:BW (%)) and adrenal-to-brain (Adrenal:BrW) weight ratios) adrenal weights were decreased 14% to 55% in both sexes at ≧3 mg/kg/day (FIGS. 16A-C and 17A-C). After the 4 week recovery period, adrenal weights remained decreased 6% to 11% in males at 3 mg/kg/day and 10% to 32% in both sexes at 30 mg/kg/day. […] Histologic changes in the adrenal glands persisted after the recovery period.

[11] = tested on: cortisol produced by H295R cells xenografted into SCID mice; experiment: Urinary cortisol levels in mice with H295R xenotransplants (DetectX cortisol assay kit); format: in vivo; details: 700 then 300 mg/kg/day; from 22 days after cell injection
Protocol: FIG. 8 depicts the urinary cortisol levels in mice with H295R xenotransplants treated with vehicle or ATR-101. Randomized cohorts of 10 mice injected with H295R cells were administered 700 mg/kg/day ATR-101 for 4 days followed by 300 mg/kg/day ATR-101 or vehicle by gavage beginning 14 days after cell injection. Urine was collected on the days indicated beginning at 22 days after cell injection (8 days after the start of ATR-101 or vehicle administration), and the cortisol levels were determined using a DetectX® cortisol assay kit (Arbor Assays).
as §3

[12] = tested on: ACC-derived xenotransplants (H295R); experiment: High dose ATR-101 on H295R xenotransplants in SCID mice (Example 7); format: in vivo; details: 1,000 mg/kg/day oral; 3 mice per group
Source text: The effects of a high dose of ATR-101 on ACC-derived xenotransplants in SCID mice were also studied. Xenografts were produced as previously described with 3 mice in the ATR-101 treated group and 3 mice in the control group.

Chain of complex II of the electron transport chain (P31040 43-664): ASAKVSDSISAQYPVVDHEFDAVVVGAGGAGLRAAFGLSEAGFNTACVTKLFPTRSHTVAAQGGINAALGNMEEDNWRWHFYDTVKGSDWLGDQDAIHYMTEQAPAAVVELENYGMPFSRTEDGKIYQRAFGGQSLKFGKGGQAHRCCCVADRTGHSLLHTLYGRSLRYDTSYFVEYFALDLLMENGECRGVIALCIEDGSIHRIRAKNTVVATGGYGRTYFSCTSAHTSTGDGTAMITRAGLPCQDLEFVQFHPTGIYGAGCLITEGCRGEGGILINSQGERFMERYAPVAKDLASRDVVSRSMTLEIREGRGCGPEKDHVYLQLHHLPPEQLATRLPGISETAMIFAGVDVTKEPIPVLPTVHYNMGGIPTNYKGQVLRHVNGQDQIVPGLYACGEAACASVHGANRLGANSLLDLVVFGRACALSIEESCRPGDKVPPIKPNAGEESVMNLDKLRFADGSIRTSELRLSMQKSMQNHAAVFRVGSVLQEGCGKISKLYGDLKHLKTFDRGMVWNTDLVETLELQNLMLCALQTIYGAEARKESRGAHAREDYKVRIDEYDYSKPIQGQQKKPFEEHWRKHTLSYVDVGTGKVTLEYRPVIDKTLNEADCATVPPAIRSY
Chain of complex II of the electron transport chain (P21912 29-280): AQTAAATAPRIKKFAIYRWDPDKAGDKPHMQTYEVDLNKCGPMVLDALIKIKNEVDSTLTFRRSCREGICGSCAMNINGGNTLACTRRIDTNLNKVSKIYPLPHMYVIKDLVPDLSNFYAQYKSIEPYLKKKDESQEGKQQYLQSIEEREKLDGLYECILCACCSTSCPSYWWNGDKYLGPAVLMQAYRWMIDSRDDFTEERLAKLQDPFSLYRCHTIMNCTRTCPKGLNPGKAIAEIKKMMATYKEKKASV
Chain of complex II of the electron transport chain (Q99643 30-169): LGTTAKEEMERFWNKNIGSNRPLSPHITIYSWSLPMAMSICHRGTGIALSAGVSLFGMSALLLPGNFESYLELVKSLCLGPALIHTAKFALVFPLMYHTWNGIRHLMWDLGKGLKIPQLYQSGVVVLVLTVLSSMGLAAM
Chain of complex II of the electron transport chain (O14521 57-159): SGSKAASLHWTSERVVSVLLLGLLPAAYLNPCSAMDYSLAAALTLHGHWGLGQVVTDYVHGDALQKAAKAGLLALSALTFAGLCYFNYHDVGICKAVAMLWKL

For `Clc1ccc(C(c2ccccc2Cl)C(Cl)Cl)cc1` (centres unmarked) [mitotane], the “proportion of patients with increased progression-free survival” value ([1]; ACC patients) is given as “one-quarter to one-third”, the elimination half-life ([1]; accumulates in fat tissue) is given as “months” and the “average delay of disease progression” value ([1]; patients that derive a therapeutic benefit) is given as “five”. The “blood level required for therapeutic benefit” value ([1]; patients) was 14000 ng/mL and the toxic blood level ([1]; patients) was 20 mg/L.
In the case of `CC(C)c1cccc(C(C)C)c1NC(=O)NCC1(c2ccc(N(C)C)cc2)CCCC1` [ATR-101, N-(2,6-bis(1-methylethyl)phenyl)-N′-((1-(4-(dimethylamino)phenyl)cyclopentyl)-methyl)urea hydrochloride], the “reduction of ATP luminescence signal” value (H295R cells [2]; 64 μM, 4 hours) is reported as “about 90%”, the “increase by MβCD of ATR-101 concentration required for half-maximal depletion of ATP levels” value (H295R cells [2]; 2 mM MβCD) is reported as “more than 4 fold” and the “ATP levels of cells cultured in presence of MβCD” value (H295R cells [2]; 2 mM MβCD, up to 32 μM ATR-101) is reported as “unaffected”. The EC50 (H295R cells [2]; Homo sapiens, NCI-H295R, 4 hours, read-out: concentration with half-maximal effect on ATP luminescence signal) was 16 µM, the “ATP level in cells cultured with MβCD complexed with cholesterol” value (H295R cells [2]; MβCD (2 mM) complexed with cholesterol) was “further reduction” and the “decrease in tumor size” value ([3]; 300 mg/kg/day oral gavage, 8 days after start, n=3, relative standard deviation 32%, control increased 400%) was 50%. For the same compound, the “time to resumption of tumor growth after change to Formulation II” value ([3]; 300 mg/kg/day, formulation changed after first week) was “within two days”, the “body condition score (BCS)” value ([3]; 300 mg/kg/day, treatment group, control 2.0) was 3.0 and the “tumor size versus control group” value ([3]; 15 days after beginning of administration, p<0.05) was “significantly smaller”. For the same compound, the “time to resumption of tumor growth after start of administration” value ([3]; Example 2) was “within eight days”, the tumor size ([3]; Example 2, 300 mg/kg/day, six days after start, n=2) was “decreased to undetectable size” and the “tumor size as fraction of size of tumors in control mice” value ([3]; Example 2, 13 days after start) was “one-eighth to one-third”. The “regression of xenograft relative to size before administration” value ([3]; all mice with tumors smaller than 300 mm^3) was “less than half of its size”, the “time at which tumors exceeded pre-treatment size” value ([3]; both experiments) was 8 to 15 days and the “time at which tumors resumed growth after start of administration” value ([3]; both experiments) was 7 to 9 days. For the same compound, the “time of maximal therapeutic effect after start of administration” value ([3]; both experiments) was 6 to 8 days, the “post-mortem tumor weight (mean)” value ([3]; first experiment, surviving treated mice, SD of the mean 0.13 g, control 1.23 g, p<0.05) was 0.71 g and the “total body weight (mean)” value ([3]; first experiment, treatment group, SD of the mean 1 g, control 19 g) was 24 g. For the same compound, the “effect on tumor growth in mice with large tumors” value ([3]; two mice with tumors of 300 mm^3 and 900 mm^3) was “did not halt the tumor growth”, the “effect on complex II of the electron transport chain” value [4] was “inhibit” and the blood-brain barrier crossing ([5]; dogs) was “does not appear to cross the blood-brain barrier”. For the same compound, the “adrenal gland concentration compared with plasma” value ([5]; female dogs, 3 mg/kg/day for 7 days, N=3) was “similar”, the “adrenal gland histopathology findings” value (adrenal gland [6]) was “fibrosis; also recorded: vacuolation; also recorded: cortical atrophy” and the Kp at 7 days ([7]; adrenal gland (relative to plasma), read-out: adrenal gland concentration relative to plasma) was roughly 2. The Kp at 7 days ([7]; ovary (relative to plasma), read-out: ovary concentration relative to plasma) was roughly 1.4, the blood-brain barrier crossing ([7]; rats) was “does not appear to cross the blood-brain barrier” and the “level in cerebral spinal fluid (CSF)” value ([7]; rats, likely contamination of CSF with blood) was “Low levels”. For the same compound, the “reducing activity in cells cultured in presence of MβCD” value (H295R cells [8]; 2 mM MβCD) was “larger increase in reducing activity”, the “resazurin fluorescence signal, higher concentrations” value (H295R cells [8]; ATR-101 concentrations higher than 8 μM) was “reduced the fluorescence” and the “reducing activity in cells cultured with MβCD complexed with cholesterol” value (H295R cells [8]; MβCD complexed with cholesterol, in absence and presence of ATR-101) was “lower reducing activities”. The “resazurin fluorescence signal, low concentrations” value (H295R cells [8]; up to 8 μM ATR-101) was “increased the fluorescence signal”, the “cortisol during recovery period” value (ACTH-stimulated cortisol; days 42 and 56, drug-free recovery) was “reversal of the cortisol-suppressive effects” and the “ACTH responses (plasma cortisol)” value (ACTH-stimulated cortisol; male and female dogs, 3 mg/kg/day and 30 mg/kg/day, from day 7 through day 14 and day 28) was “Marked drug-associated decreases”. The “body weight versus vehicle” value ([9]; 700 then 300 mg/kg/day) was “no significant difference”, the “median time until xenograft formation versus vehicle-treated group” value ([9]; 700 then 300 mg/kg/day) was “more than twice as long” and the survival ([9]; 100 days after injection) was “All the mice were alive”. For the same compound, the “mice that developed palpable xenografts” value ([9]; of 10 mice, 700 mg/kg/day 4 days then 300 mg/kg/day by gavage from 14 days after injection, vehicle 7 of 10) was 2, the xenograft size ([9]; the 2 xenografts, 100 days after injection) was less than 500 mm^3 and the “histologic changes in adrenal glands after recovery period” value (adrenal gland [10]; after 4 week recovery) was “persisted”. The “histologic changes associated with adrenal weight changes” value (adrenal gland [10]; both sexes, ≧3 mg/kg/day) was “adrenal cortical atrophy, fibrosis, and vacuolation”, the “average urinary cortisol levels versus vehicle” value [11] was “lower” and the “tumor growth versus vehicle treated controls” value [12] was “significantly reduced tumor growth”.
